Experimental data as given in the supplement of paper PMC13380429.
± gives the standard deviation of the averaged measurements.

Columns and labels:
[1] = tested on: U2OS; experiment: cell viability relative to DMSO; higher = less toxic; conditions: 72 h
[2] = tested on: Vero E6; experiment: as above; conditions: 72 h
[3] = tested on: HepG2; experiment: as above; conditions: 72 h
[4] = tested on: Caco-2; experiment: as above; conditions: 72 h
[5] = tested on: Calu-3; experiment: as above; conditions: 72 h
[6] = tested on: A549-ACE2 infected with SARS-CoV-2; experiment: morphology score (similarity to uninfected cells); higher = more like uninfected cells; conditions: 24 h
[7] = tested on: A549-ACE2 infected with SARS-CoV-2; experiment: SARS-CoV-2 infection rate relative to DMSO; higher = more infection; conditions: 24 h
[8] = tested on: U2OS; experiment: relative viability EC50 (midpoint between 100% and the lowest measured viability); higher = less toxic; conditions: 72 h
[9] = tested on: Vero E6; experiment: as above; conditions: 72 h
[10] = tested on: HepG2; experiment: as above; conditions: 72 h
[11] = tested on: Caco-2; experiment: as above; conditions: 72 h
[12] = tested on: Calu-3; experiment: as above; conditions: 72 h
[13] = tested on: A549-ACE2; experiment: drug-induced phospholipidosis relative to tamoxifen; higher = more phospholipidosis
[14] = tested on: U2OS; experiment: drug sensitivity score (DSS) for viability; higher = more toxic; extreme values may be limits of the assay; conditions: 72 h
[15] = tested on: Vero E6; experiment: as above; conditions: 72 h
[16] = tested on: HepG2; experiment: as above; conditions: 72 h
[17] = tested on: Caco-2; experiment: as above; conditions: 72 h
[18] = tested on: Calu-3; experiment: as above; conditions: 72 h
[19] = tested on: A549-ACE2 infected with SARS-CoV-2; experiment: cell count relative to DMSO; higher = less toxic; conditions: 24 h
[20] = tested on: A549-ACE2; experiment: phospholipidosis EC50; higher = less potent phospholipidosis inducer

N#CC[C@@H](C1CCCC1)n1cc(-c2ncnc3[nH]ccc23)cn1 [ruxolitinib-(S)]
Conditions	SARS-CoV-2 infection rate, [7] [%]	cell count, [19] [%]	cell viability, [1] [%]	cell viability, [2] [%]	cell viability, [3] [%]	cell viability, [4] [%]	cell viability, [5] [%]	morphology score, [6]
1 nM	–	–	100 ± 3.2	98.5 ± 2	101 ± 11	103 ± 2.2	91.4	–
10 nM	–	–	99.1 ± 5	101 ± 2.9	96 ± 3.6	99 ± 1.1	97.1	–
100 nM	–	–	99.3 ± 1.6	98.2 ± 2.5	92.3 ± 6.9	106 ± 0.99	99	–
0.3 µM	109	88	–	–	–	–	–	0.15
1000 nM	–	–	97.5 ± 1.1	96.5 ± 3	103.3 ± 0.99	93.6 ± 1.1	102	–
3 µM	110	100	–	–	–	–	–	0.17
10000 nM	–	–	95.8 ± 1.5	94.05 ± 0.78	97.4 ± 12	99.6 ± 3.5	112	–
10 µM	112	91	–	–	–	–	–	-0.08
30 µM	119	36	–	–	–	–	–	-0.15

Conditions	drug sensitivity score	relative viability EC50 [µM]
[8]	–	> 10
[9]	–	> 10
[10]	–	> 10
[11]	–	> 10
[12]	–	> 10
[14]	0	–
[15]	0	–
[16]	0	–
[17]	0	–
[18]	0	–

drug-induced phospholipidosis [%], [13]
Conditions	0.3 µM	0.833333 µM	3.33333 µM	6.66667 µM	10 µM	30 µM
24 h	-0.6	-1.86	-0.62	3.24	4.69	32.2
48 h	-3.03	-3.25	-1.5	0.99	1.91	–
72 h	-3.98	-4.86	-3.52	-0.549	1.82	–

O=C1C=C2C=C[C@@H]3C[C@@]2(O1)[C@H]1CCCCN31 [securinine]
Conditions	SARS-CoV-2 infection rate, [7] [%]	cell count, [19] [%]	cell viability, [1] [%]	cell viability, [2] [%]	cell viability, [3] [%]	cell viability, [4] [%]	cell viability, [5] [%]	morphology score, [6]
1 nM	–	–	103	93.1	94.9	76.4	96.5	–
10 nM	–	–	94.9	101	103	91.5	88.5	–
100 nM	–	–	103	92.5	104	104	101	–
0.3 µM	108	92	–	–	–	–	–	-0.16
1000 nM	–	–	95.1	97.5	108	90.1	92.1	–
3 µM	107	97	–	–	–	–	–	-0.26
10000 nM	–	–	94.9	101	99.8	99.5	98.5	–
10 µM	109	103	–	–	–	–	–	-0.24
30 µM	87	84	–	–	–	–	–	-0.11

Conditions	drug sensitivity score	relative viability EC50 [µM]
[8]	–	> 10
[9]	–	> 10
[10]	–	> 10
[11]	–	> 10
[12]	–	> 10
[14]	0	–
[15]	0	–
[16]	0	–
[17]	0	–
[18]	0	–

drug-induced phospholipidosis [%], [13]
Conditions	0.3 µM	0.833333 µM	3.33333 µM	6.66667 µM	10 µM	30 µM
24 h	4.04	-1.29	-2.26	-0.14	0.15	3.11
48 h	4.43	0.73	0.81	3.64	1.66	8.62
72 h	5.5	-2.31	1.12	1.57	2.55	11.9

Fc1ccc(-n2cc(CCCCN3CCC4(CC3)OCc3ccccc34)c3ccccc32)cc1 [siramesine]
Conditions	SARS-CoV-2 infection rate [%]	cell count [%]	cell viability [%]	morphology score	phospholipidosis EC50 [µM]
[1], 1 nM	–	–	100	–	–
[1], 10 nM	–	–	97.7	–	–
[1], 100 nM	–	–	95.6	–	–
[1], 1000 nM	–	–	103	–	–
[1], 10000 nM	–	–	53.2	–	–
[2], 1 nM	–	–	98.9	–	–
[2], 10 nM	–	–	93.5	–	–
[2], 100 nM	–	–	99.2	–	–
[2], 1000 nM	–	–	89	–	–
[2], 10000 nM	–	–	73.5	–	–
[3], 1 nM	–	–	97.7	–	–
[3], 10 nM	–	–	100	–	–
[3], 100 nM	–	–	93.5	–	–
[3], 1000 nM	–	–	98.6	–	–
[3], 10000 nM	–	–	24	–	–
[4], 1 nM	–	–	97.3	–	–
[4], 10 nM	–	–	104	–	–
[4], 100 nM	–	–	85.1	–	–
[4], 1000 nM	–	–	101	–	–
[4], 10000 nM	–	–	37.5	–	–
[5], 1 nM	–	–	88.8	–	–
[5], 10 nM	–	–	94.3	–	–
[5], 100 nM	–	–	88.2	–	–
[5], 1000 nM	–	–	104	–	–
[5], 10000 nM	–	–	17.8	–	–
[6], 0.1 µM	–	–	–	0.38	–
[6], 0.3 µM	–	–	–	0.75	–
[6], 1 µM	–	–	–	0.69	–
[6], 3 µM	–	–	–	0.84	–
[7], 0.1 µM	93	–	–	–	–
[7], 0.3 µM	50	–	–	–	–
[7], 1 µM	60	–	–	–	–
[7], 3 µM	26	–	–	–	–
[19], 0.1 µM	–	111	–	–	–
[19], 0.3 µM	–	114	–	–	–
[19], 1 µM	–	117	–	–	–
[19], 3 µM	–	111	–	–	–
[20], 72 h	–	–	–	–	4.1

Conditions	drug sensitivity score	relative viability EC50 [µM]
[10]	–	3.03
[11]	–	3.26
[12]	–	3.44
[14]	2.2	–
[15]	2.2	–
[16]	4.4	–
[17]	3.3	–
[18]	4.2	–

drug-induced phospholipidosis [%], [13]
Conditions	0.3 µM	0.833333 µM	3.33333 µM	6.66667 µM	10 µM
24 h	2.74	5.08	32.4	33.5	24.5
48 h	4.1	0.61	22.6	47.9	–
72 h	0.56	0.623	23.8	61.4	–

Cc1[nH]c(/C=C2\C(=O)Nc3ccc(F)cc32)c(C)c1C(=O)NCCN1CCCC1 [toceranib]
Conditions	SARS-CoV-2 infection rate [%]	cell count [%]	cell viability [%]	morphology score	phospholipidosis EC50 [µM]
[1], 1 nM	–	–	95.5	–	–
[1], 10 nM	–	–	97.9	–	–
[1], 100 nM	–	–	103	–	–
[1], 1000 nM	–	–	96.3	–	–
[1], 10000 nM	–	–	85.2	–	–
[2], 1 nM	–	–	89.9	–	–
[2], 10 nM	–	–	99.1	–	–
[2], 100 nM	–	–	101	–	–
[2], 1000 nM	–	–	106	–	–
[2], 10000 nM	–	–	73.2	–	–
[3], 1 nM	–	–	99.4	–	–
[3], 10 nM	–	–	107	–	–
[3], 100 nM	–	–	97.3	–	–
[3], 1000 nM	–	–	106	–	–
[3], 10000 nM	–	–	53.9	–	–
[4], 1 nM	–	–	95.6	–	–
[4], 10 nM	–	–	94.8	–	–
[4], 100 nM	–	–	98.8	–	–
[4], 1000 nM	–	–	105	–	–
[4], 10000 nM	–	–	92.9	–	–
[6], 0.1 µM	–	–	–	0.22	–
[6], 0.3 µM	–	–	–	-0.03	–
[6], 1 µM	–	–	–	0.33	–
[6], 3 µM	–	–	–	0.51	–
[7], 0.1 µM	88	–	–	–	–
[7], 0.3 µM	107	–	–	–	–
[7], 1 µM	100	–	–	–	–
[7], 3 µM	80	–	–	–	–
[19], 0.1 µM	–	107	–	–	–
[19], 0.3 µM	–	103	–	–	–
[19], 1 µM	–	102	–	–	–
[19], 3 µM	–	111	–	–	–
[20], 24 h	–	–	–	–	16.5

Conditions	drug sensitivity score	relative viability EC50 [µM]
[8]	–	> 10
[11]	–	> 10
[14]	0.5	–
[15]	0.8	–
[16]	2	–
[17]	0	–

drug-induced phospholipidosis [%], [13]
Conditions	0.3 µM	0.833333 µM	3.33333 µM	6.66667 µM	10 µM	30 µM
24 h	4.88	-0.73	12.9	38.6	54.2	119
48 h	5.94	-0.83	1.11	20.1	38.4	–
72 h	4.25	-2.8	-0.0471	16	34	–
